Experimental data reported in patent publication US20250236616A1, “IMMUNOMODULATING AZALIDES” (Zoetis Services LLC, priority 2021, published 2025).
Marks after values point to notes of the source that are not given here.

What was measured:
[1] = system: P. multocida 46572; assay: In vivo mouse lung infection challenge model (murine efficacy), survival; set-up: species or system CD-1 female mice; conditions: P. multocida 46572 intranasal challenge; 20 mg/kg subcutaneous; harmonized relative to vehicle (−) and M9 (+) controls
Description: The challenge organism was P. multocida 46572. Target challenge concentration was 5×10^2 CFU/mouse. Isolated colonies from overnight growth (37° C. with 5% CO2) on trypticase soy agar (TSA II) blood plates were transferred to room temperature Brain Heart Infusion Broth (BHIB). The broth culture was incubated 3.5-4 hours to approximately mid-log phase of growth, as measured by forward light scatter at 600 nm (OD600, 0.200). The culture was centrifuged to collect the bacterial pellet. The pellet was re-suspended in BHIB and adjusted to provide an approximate concentration of 2.7 log 10 colony forming units (CFU) in 0.04 mL at the highest concentration. The challenge inoculum concentration was confirmed by serial dilutions of the inoculum for CFU enumeration. On Day −5, CD −1 female mice were received. Mice were given standard rodent diet and water ad libitum. On Day 0, bacterial inoculum (0.04 mL) was administered to each mouse (n=36) intranasally. Compounds of the invention were dosed at 20 mg/kg (0.1 mL) in a buffered (˜pH 5.4) propylene glycol, monothioglycerol and water solution by subcutaneous injection. Animals were observed from Days 1-10. The study was terminated on Day 10. In addition, some treatment groups were sampled at 6, 24, and 48 hours post bacterial challenge for RNA sequence analysis of lung tissue.
The murine efficacy model (P.multocida challenge) was optimized, and the treatment group size was powered to be able to observe statistically significant improvement of survival to expected ranges for immunomodulatory compounds. The experimental design was a randomized complete block design. Mice were individually identified and treatment groups comingled within a cage, with every treatment group equally represented across cages. Mortality was the primary variable. Mortality data was analyzed using a generalized mixed model with fixed effect of treatment and random effect of block. Survival time was also analyzed using the SAS PHREG (survival analysis) procedure to examine whether there were significant differences between treatment groups and the control group. Numerous compounds of the invention and M9 (positive control) were tested in this model at a dose of 20 mg/kg (Table 3). Typical percent survival for no treatment control is in the range of 0-20% based on study to study variation in challenge inoculum and rate of infection. […] Mouse survival for M9 was about 90-100%, further supporting its residual antibacterial properties against the bacterial strain.

[2] = system: IL-1β; assay: Whole bovine blood assay, LPS-induced IL-1β (inhibition / overstimulation); assay type: cell-based; conditions: drug concentration giving overstimulation (OS) of LPS-induced IL-1β
Summary of the method: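 IL-1β was quantified by MSD U-Plex chemiluminescence in plasma and normalized to BCA total protein. Bovine blood was pretreated 4 h at 37 °C with compound dilutions before 18 h LPS challenge (1 μg/mL final). Rising IL-1β at high concentrations was recorded as overstimulation.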

[3] = system: TNF-α; assay: Whole bovine blood assay, LPS-induced TNF-α; assay type: cell-based; conditions: fresh whole bovine blood, LPS stimulant
Summary of the method: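 Fresh heparinized bovine whole blood was preincubated with compound 4 h at 37 °C, then stimulated with LPS (final 1 μg/mL) for 18 h at 37 °C. Plasma TNF-α was quantified by MSD U-Plex chemiluminescent immunoassay, normalized to total protein (BCA), and IC50 taken for LPS-induced TNF-α inhibition.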

[4] = system: IL-6; assay: Whole bovine blood assay, LPS-induced IL-6; assay type: cell-based; conditions: fresh whole bovine blood, LPS stimulant, top drug concentration 250 μM
[5] = system: BRD pathogens, M. haemolytica and P. multocida; assay: MIC screening panel, BRD pathogens (CLSI broth micro-dilution); assay type: cell-based; conditions: Table C; at least one BRD pathogenic strain; top concentration 64 μg/mL
Summary of the method: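 MICs were determined by CLSI broth micro-dilution in cation-adjusted Mueller Hinton Broth at about 5×10^5 CFU/mL, with QC strains included. Incubation was 18-22 h at 35-37° C. in air, 5% CO2 or anaerobically (up to 48 h) depending on strain. BRD pathogens were first tested at a top concentration of 64 μg/mL in an eleven-point dilution series.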

[6] = Bos taurus, 18 h, top concentration 250 μM
[7] = Bos taurus, top drug concentration 250 μM
[8] = Bos taurus, 18 h, dose of 500 μM (footnote ^)
[9] = Bos taurus, dose of 500 μM (footnote ^)

| SMILES | % Survival [1] | IC50 [3, 7] | minimal effective concentration ([2]; top concentration 250 μM) | other results |
| --- | --- | --- | --- | --- |
| CC[C@H]1OC(=O)[C@H](C)[C@@H](O)[C@H](C)[C@@H](O[C@@H]2O[C@H](C)C[C@H](N(C)S(=O)(=O)c3ccccc3)[C@H]2Oc2ccccc2)[C@](C)(O)C[C@@H](C)CN(C)[C@H](C)[C@@H](O)[C@]1(C)O [Example A-3, N-((2S,3R,4S,6R)-2-(((2R,3S,4R,5R,8R,10R,11R,12S,13S,14R)-2-ethyl-3,4, 10,13-tetrahydroxy-3,5,6,8,10, 12,14-heptamethyl-15-oxo-1-oxa-6-azacyclopentadecan-11-yl)oxy)-6-methyl-3-phenoxytetrahydro-2H-pyran-4-yl)-N-methylbenzenesulfonamide] | 24% | 23 µM | – | minimal effective concentration [2, 6]: 14 µM; IC50 ([4]; Bos taurus): 43 µM |
| CCCNC[C@]1(O)[C@H](C)O[C@@H](O[C@H]2[C@H](C)[C@@H](O[C@@H]3O[C@H](C)C[C@H](N(C)S(=O)(=O)Nc4ccccc4)[C@H]3O)[C@](C)(O)C[C@@H](C)CN[C@H](C)[C@@H](O)[C@](C)(O)[C@@H](CC)OC(=O)[C@@H]2C)C[C@@]1(C)OC [Example B-48, (2R,3S,4R,5R,8R,10R,11R,12S,13S, 14R)-2-ethyl-3,4,10-trihydroxy-13-[(2R,4R,5S,6S)-5-hydroxy-4-methoxy-4,6-dimethyl-5-(propylaminomethyl)oxan-2-yl]oxy-11-[(2S,3R,4S,6R)-3-hydroxy-6-methyl-4-[methyl(phenylsulfamoyl)amino]oxan-2-yl]oxy-3,5,8,10,12,14-hexamethyl-15-oxo-1-oxa-6-azacyclopentadecane] | 33% | – | – | minimal effective concentration [2, 8]: 32 µM; IC50 [3, 9]: 25 µM |
| CCCNC[C@]1(O)[C@H](C)O[C@@H](O[C@H]2[C@H](C)[C@@H](O[C@@H]3O[C@H](C)C[C@H](N(C)S(=O)(=O)c4ccc(C(F)(F)F)cc4)[C@H]3O)[C@](C)(O)C[C@@H](C)CN[C@H](C)[C@@H](O)[C@](C)(O)[C@@H](CC)OC(=O)[C@@H]2C)C[C@@]1(C)OC [Example B-14, N-((2S,3R,4S,6R)-2-(((2R,3S,4R,5R,8R,10R,11R,12S,13S,14R)-2-ethyl-3,4,10-trihydroxy-13-(((2R,4R,5S,6S)-5-hydroxy-4-methoxy-4,6-dimethyl-5-((propylamino)methyl)tetrahydro-2H-pyran-2-yl)oxy)-3,5,8,10,12,14-hexamethyl-15-oxo-1-oxa-6-azacyclopentadecan-11-yl)oxy)-3-hydroxy-6-methyltetrahydro-2H-pyran-4-yl)-N-methyl-4-(trifluoromethyl)benzenesulfonamide] | 16% | – | – | – |
| CCCNC[C@]1(O)[C@H](C)O[C@@H](O[C@H]2[C@H](C)[C@@H](O[C@@H]3O[C@H](C)C[C@H](N(C)S(=O)(=O)N(C)c4ccc(C(F)(F)F)cc4)[C@H]3O)[C@](C)(O)C[C@@H](C)CN[C@H](C)[C@@H](O)[C@](C)(O)[C@@H](CC)OC(=O)[C@@H]2C)C[C@@]1(C)OC [Example B-113, (2R,3S,4R,5R,8R,10R,11R,12S,13S,14R)-2-ethyl-3,4, 10-trihydroxy-13-[(2R,4R,5S,6S)-5-hydroxy-4-methoxy-4,6-dimethyl-5-(propylaminomethyl)oxan-2-yl]oxy-11-[(2S,3R,4S,6R)-3-hydroxy-6-methyl-4-[methyl-[methyl-[4-(trifluoromethyl)phenyl]sulfamoyl]amino]oxan-2-yl]oxy-3,5,8, 10, 12, 14-hexamethyl-1-oxa-6-azacyclopentadecan-15-one] | 59% | 7 µM | – | – |
| CCCNC[C@]1(O)[C@H](C)O[C@@H](O[C@H]2[C@H](C)[C@@H](O[C@@H]3O[C@H](C)C[C@H](N(C)S(=O)(=O)N(C)Cc4ccc(Cl)cc4)[C@H]3O)[C@](C)(O)C[C@@H](C)CN[C@H](C)[C@@H](O)[C@](C)(O)[C@@H](CC)OC(=O)[C@@H]2C)C[C@@]1(C)OC [Example B-41] | 52% | – | 6 µM | – |
| CCCNC[C@]1(O)[C@H](C)O[C@@H](O[C@H]2[C@H](C)[C@@H](O[C@@H]3O[C@H](C)C[C@H](N(C)S(=O)(=O)c4ccc(Cl)cc4)[C@H]3O)[C@](C)(O)C[C@@H](C)CN[C@H](C)[C@@H](O)[C@](C)(O)[C@@H](CC)OC(=O)[C@@H]2C)C[C@@]1(C)OC [Example B-60, 4-chloro-N-((2S,3R,4S,6R)-2-(((2R,3S,4R,5R,8R,10R,11R, 12S,13S, 14R)-2-ethyl-3,4,10-trihydroxy-13-(((2R,4R,5S,6S)-5-hydroxy-4-methoxy-4,6-dimethyl-5-((propylamino)methyl)tetrahydro-2H-pyran-2-yl)oxy)-3,5,8, 10, 12, 14-hexamethyl-15-oxo-1-oxa-6-azacyclopentadecan-11-yl)oxy)-3-hydroxy-6-methyltetrahydro-2H-pyran-4-yl)-N-methylbenzenesulfonamide] | 37% | – | – | minimal effective concentration [2, 8]: 13 µM; IC50 [3, 9]: 5 µM |
| CC[C@H]1OC(=O)[C@H](C)[C@@H](O)[C@H](C)[C@@H](O[C@@H]2O[C@H](C)C[C@H](N(C)S(=O)(=O)c3ccccc3)[C@H]2Oc2ccc(OC)c(OC)c2)[C@](C)(O)C[C@@H](C)CN[C@H](C)[C@@H](O)[C@]1(C)O [Example A-8, N-((2S,3R,4S,6R)-3-(3,4-dimethoxyphenoxy)-2-(((2R,3S,4R,5R,8R,10R,11R,12S,13S,14R)-2-ethyl-3,4, 10, 13-tetrahydroxy-3,5,8,10,12,14-hexamethyl-15-oxo-1-oxa-6-azacyclopentadecan-11-yl)oxy)-6-methyltetrahydro-2H-pyran-4-yl)-N-methylbenzenesulfonamide] | 20% | 40 µM | – | minimal effective concentration [2, 6]: 100 µM |
| CC(=O)O.CC[C@H]1OC(=O)[C@H](C)[C@@H](O[C@H]2C[C@@](C)(OC)[C@](O)(CN3CCCCC3)[C@H](C)O2)[C@H](C)[C@@H](O[C@@H]2O[C@H](C)C[C@H](N(C)S(=O)(=O)Nc3ccc(C(F)(F)F)cc3)[C@H]2O)[C@](C)(O)C[C@@H](C)CN(C)[C@H](C)[C@@H](O)[C@]1(C)O [Example C-57, (2R,3S,4R,5R,8R,10R,11R,12S,13S,14R)-2-ethyl-3,4, 10-trihydroxy-13-[(2R,4R,5S,6S)-5-hydroxy-4-methoxy-4,6-dimethyl-5-(piperidin-1-ylmethyl)oxan-2-yl]oxy-11-[(2S,3R,4S,6R)-3-hydroxy-6-methyl-4-[methyl-[[4-(trifluoromethyl)phenyl]sulfamoyl]amino]oxan-2-yl]oxy-3,5,6,8, 10, 12, 14-heptamethyl-15-oxo-1-oxa-6-azacyclopentadecane, acetic acid] | – | – | 16 µM | IC50 ([3]; top drug concentration 250 μM): 6 µM; IC50 [4]: 9 µM; MIC flag (*) for BRD pathogenic strains [5]: C-57* (MIC ≤64 μg/mL for at least one BRD pathogenic strain) |
| CCCNC[C@@]1(O)[C@@H](C)OC(O[C@H]2[C@H](C)[C@@H](O[C@@H]3O[C@H](C)C[C@H](N(C)S(=O)(=O)c4ccccc4)[C@H]3Oc3ccccn3)[C@](C)(O)C[C@@H](C)CN[C@H](C)[C@@H](O)[C@](C)(O)[C@@H](CC)OC(=O)[C@@H]2C)C[C@]1(C)OC (stereo partly drawn) [Example B-130] | 42% | – | 6 µM | – |
